Reference: article PMC12412453 (Toxicology, 2021)
Where “and” joins values, the source holds several entries; their conditions need not be identical. Identical values can stand only once. Like-named read-outs stand apart in the source and are kept apart here.

How the values were obtained:
[1] = test system: primary human hepatocytes (PHHs); conditions: ref Seo et al., 2020, cited from earlier work; for Max. con.: maximum concentration
[2] = test system: primary human hepatocytes (PHHs); conditions: ref Seo et al., 2020, cited from earlier work; for BMD50: PHH CometChip data reanalyzed using PROAST; for BMDL50–BMDU50 / Potency ranking / LEC (lowest effective concentration) / BMDU/BMDL / DNA damage (ratio of %DNA in tail at highest concentration to vehicle control): PHH; for BMDL50–BMDU50: 90 % confidence interval of BMD50; for Potency ranking: rank by BMD50 among nine positive compounds; for LEC (lowest effective concentration): lowest concentration positive in comet assay
[3] = test system: primary macaque hepatocytes (PMHs); test: CometChip assay; conditions: for BMDU/BMDL / DNA damage (ratio of %DNA in tail at highest concentration to vehicle control) / LEC (lowest effective concentration) / BMDL50–BMDU50 / Potency ranking: PMH; for BMD50: PMH CometChip data, PROAST exponential model; for DNA damage (ratio of %DNA in tail at highest concentration to vehicle control) / LEC (lowest effective concentration): 24-h treatment; for LEC (lowest effective concentration): lowest concentration positive in comet assay; for BMDL50–BMDU50: 90 % confidence interval of BMD50; for Potency ranking: rank by BMD50 among nine positive compounds; for fold increase in % tail DNA (DNA damage) compared to the vehicle control: PMHs, highest acceptable concentration, range given for four compounds together
[4] = reported findings; ref References column of Table 1; cited from earlier work
[5] = reported findings; ref References column of Table 1; cited from earlier work; remark: listed apart in the source
[6] = test system: primary macaque hepatocytes (PMHs); test: Cytotoxicity by ATP assay; conditions: for Max. con.: maximum concentration
[7] = reported findings; ref References column of Table 1; cited from earlier work; remark: listed apart in the source
[8] = test system: cynomolgus monkeys; conditions: dosed cynomolgus monkeys; ref Thorgeirsson et al., 1995; cited from earlier work
[9] = Cytotoxicity by ATP assay; conditions: rhesus macaque, primary macaque hepatocytes (PMHs)

Structure (SMILES) | Cytotoxicity ([1]; PHH, ATP assay, 24-h treatment) | Max. con. ([1]; PHH) | DNA damage (ratio of %DNA in tail at highest concentration to vehicle control) [2] | Genotoxicity assay findings in vivo [4] | Genotoxicity assay findings in vitro [5] | Max. con. ([6]; PMH, 24-h treatment) | Cytotoxicity ([6]; PMH, ATP assay, 24-h treatment) | Carcinogenicity [7] | other results
Cc1ccc(N)cc1N [2,4-DAT, 2,4-diaminotoluene] | + (11–30 %) | 8000 µM | ++ (2 < ratio ≤ 5) | (+) for UDS and comet; (+/−) for MN in BM | (+) for MLA, CA, MN, comet, and UDS; (−) for comet in HepaRG and Hprt | 8000 µM | + (11–30 %) |  | BMD50 [2]: 880.6 µM; BMDL50–BMDU50 [2]: 489 to 1580 µM; Potency ranking [2]: 9; LEC (lowest effective concentration) [2]: 1414 µM; BMDU/BMDL [2]: 3.2; BMD50 fold higher in PMHs than in PHHs (lower in PHHs) ([3]; CometChip BMD50, PMH vs PHH): 3.2 fold; BMDU/BMDL [3]: 2.6; BMD50 [3]: 2831 µM; DNA damage (ratio of %DNA in tail at highest concentration to vehicle control) [3]: ++ (2 < ratio ≤ 5); LEC (lowest effective concentration) [3]: 8000 µM; BMDL50–BMDU50 [3]: 1790 to 4660 µM; Potency ranking [3]: 9
CCCC(O)C(CC)CO (centres unmarked) [2-Ethyl-1,3-hexanediol] | + (11–30 %) | 10,000 μM | − (The ratio ≤ 1.5-fold and p ≥ 0.05) |  | (+) for CA + S9; (−) for MLA, Hprt, MN, and SCE | 10,000 μM | + (11–30 %) | (−) in dermal studies | 
O=[N+]([O-])c1cc[n+]([O-])c2ccccc12 [4-NQO, 4-nitroquinoline 1-oxide] | + (11–30 %) | 5 µM |  |  | (+) for CA, MLA, Pig-a, comet | 7.5 µM | + (11–30 %) |  | BMD50 [2]: 0.3 µM; BMDL50–BMDU50 [2]: 0.1 to 0.6 µM; Potency ranking [2]: 1
Cc1cnc2ccc3c(nc(N)n3C)c2n1 [8-MeIQx, 2-amino-3,8-dimethylimidazo[4,5-f]-quinoxaline] |  |  |  |  |  |  |  |  | DNA adducts in several organs, particularly liver, kidney, and heart [8]: high levels of DNA adducts
[Cl][Cd][Cl] [CdCl2, cadmium chloride] | + (11–30 %) | 4 µM | + (1.5 < ratio ≤ 2, and p < 0.05) | (+) for CA and MN, comet in liver | (+) for MN, CA, MLA, Hprt, comet | 4 µM | ++ (31–50 %) | (+) for lung, prostate, etc. | Cytotoxicity ([1]; PHHs, 4 μM): 25%; BMD50 [2]: 0.9 µM; BMDL50–BMDU50 [2]: 0.5 to 1.6 µM; Potency ranking [2]: 2; LEC (lowest effective concentration) [2]: 1 µM; BMDU/BMDL [2]: 3.2; BMDU/BMDL [3]: 2.3; BMD50 [3]: 0.37 µM and 0.4 µM; DNA damage (ratio of %DNA in tail at highest concentration to vehicle control) [3]: +++ (the ratio > 5); LEC (lowest effective concentration) [3]: 2 µM; BMDL50–BMDU50 [3]: 0.2 to 0.5 µM; Potency ranking [3]: 1; fold increase in % tail DNA (DNA damage) compared to the vehicle control [3]: 6.1–8.1 fold; Cytotoxicity ([6]; PMHs, 4 μM, 24-h exposure): 43%
COc1cc2c(c(OC)c1OC)-c1ccc(OC)c(=O)cc1[C@@H](NC(C)=O)CC2 [Colchicine] | + (11–30 %) |  |  |  |  |  | + (11–30 %) |  | 
COc1cc(/C=C/C(=O)CC(=O)/C=C/c2ccc(O)c(OC)c2)ccc1O [Curcumin] | + (11–30 %) | 40 µM |  |  |  | 40 µM | + (11–30 %) |  | 
Cc1c2ccccc2c(C)c2c1ccc1ccccc12 [DMBA, 7,12-dimethylbenzanthracene] | − (cytotoxicity of 0–10 %) | 250 µM | ++ (2 < ratio ≤ 5) | (+) for MN and Pig-a in blood, comet in liver, CA in BM, gene mutation | (+) for MLA, CA, MN, comet, and UDS | 500 µM | + (11–30 %) | (+) for mammary liver, skin tumor, etc. | BMD50 [2]: 15.1 µM; BMDL50–BMDU50 [2]: 8.5 to 25.8 µM; Potency ranking [2]: 6; LEC (lowest effective concentration) [2]: 62.5 µM; BMDU/BMDL [2]: 3.0; BMD50 fold higher in PHHs than in PMHs (lower in PMHs) ([3]; CometChip BMD50, PHH vs PMH): 3.8 fold and 3.75 fold; BMDU/BMDL [3]: 2.4; BMD50 [3]: 4.0 µM; DNA damage (ratio of %DNA in tail at highest concentration to vehicle control) [3]: +++ (the ratio > 5); LEC (lowest effective concentration) [3]: 31.25 µM; BMDL50–BMDU50 [3]: 2.6 to 6.1 µM; Potency ranking [3]: 3; fold increase in % tail DNA (DNA damage) compared to the vehicle control [3]: 6.1–8.1 fold; LEC fold higher in PHHs than in PMHs ([3]; comet assay LEC, PHH vs PMH): 2 fold; cytotoxic effects (in words) ([6]; PMHs, ATP assay, 24-h exposure): cytotoxic effects over the same range of concentrations, but only in PMHs
CCc1cc(C(N)=S)ccn1 [Ethionamide] | + (11–30 %) | 2000 µM | − (The ratio ≤ 1.5-fold and p ≥ 0.05) | (−) for comet |  | 2000 µM | + (11–30 %) | (−) in rats and mice | 
Oc1ccc(O)cc1 [HQ, hydroquinone] | ++ (31–50 %) | 200 µM | − (The ratio ≤ 1.5-fold and p ≥ 0.05) | (+) for CA, MN; (−) for comet and TG in liver and stomach | (+) for MLA, MN, CA, comet | 200 µM | + (11–30 %) | (+) for liver and kidney adenoma | cell viability ([1]; PHHs, 200 μM, range given for cisplatin and HQ together): 55–63%; viability at 24 h, 200 µM [9]: 78 to 81%
Cn1c(N)nc2c3cccnc3ccc21 [IQ, 2-amino-3-methylimidazo-[4,5-f]-quinoline] |  |  |  |  |  |  |  |  | DNA adducts in several organs, particularly liver, kidney, and heart [8]: high levels of DNA adducts
Cn1c(N)nc2ncc(-c3ccccc3)cc21 [PhIP, 2-amino-1-me-thyl-6-phenylimidazo-[4,5-b]-pyridine] |  |  |  |  |  |  |  |  | DNA adducts in several organs, particularly liver, kidney, and heart [8]: high levels of DNA adducts
Oc1cccc(O)c1 [Resorcinol] | ++ (31–50 %) | 2000 µM | − (The ratio ≤ 1.5-fold and p ≥ 0.05) |  |  | 1000 µM | ++ (31–50 %) | (−) in rats and mice | 
Nc1ccccc1C(=O)O [o-Anthranilic acid] | − (cytotoxicity of 0–10 %) | 5000 µM | − (The ratio ≤ 1.5-fold and p ≥ 0.05) | (−) for Pig-a, MN, CA, comet |  | 5000 µM | ++ (31–50 %) |  | DNA damage (ratio of %DNA in tail at highest concentration to vehicle control) [3]: − (The ratio ≤ 1.5-fold and p ≥ 0.05); cytotoxic effects (in words) ([6]; PMHs, ATP assay, 24-h exposure): cytotoxic effects over the same range of concentrations, but only in PMHs
